The NIST ThermoML archive (doi:10.1016/j.jct.2014.05.016)

Test: xn = mol fraction of the nth substance listed
Conditions: 100 kPa, Liquid; for mass density: Vibrating tube method; for viscosity: Concentric cylinders viscometry

C[n+]1ccn(CCO)c1.F[B-](F)(F)F [1-(2-hydroxyethyl)-3-methylimidazolium tetrafluoroborate] + CCCC[n+]1ccccc1.F[B-](F)(F)F
Conditions	mass density [kg/m3]	viscosity [mPa·s]
318.15 K, x1 = 0.1003	1211.8	–
318.15 K, x1 = 0.2004	1225	–
318.15 K, x1 = 0.3003	1238.3	–
318.15 K, x1 = 0.3999	1252	–
318.15 K, x1 = 0.5007	1266.3	–
318.15 K, x1 = 0.5991	1280.7	–
318.15 K, x1 = 0.6954	1295.2	–
318.15 K, x1 = 0.7997	1311.4	–
318.15 K, x1 = 0.8996	1327.5	–
318.15 K, x1 = 1	1343.7	–
323.15 K, x1 = 0.1003	1208.4	46.31
323.15 K, x1 = 0.2001	–	44.75
323.15 K, x1 = 0.2004	1221.5	–
323.15 K, x1 = 0.2997	–	43.16
323.15 K, x1 = 0.3003	1234.8	–
323.15 K, x1 = 0.3999	1248.5	41.83
323.15 K, x1 = 0.4996	–	40.75
323.15 K, x1 = 0.5007	1262.7	–
323.15 K, x1 = 0.5991	1277.1	39.57
323.15 K, x1 = 0.6954	1291.8	–
323.15 K, x1 = 0.6997	–	38.63
323.15 K, x1 = 0.7997	1307.8	–
323.15 K, x1 = 0.7999	–	37.9
323.15 K, x1 = 0.8996	1323.8	–
323.15 K, x1 = 0.8998	–	36.75
323.15 K, x1 = 1	1340.1	36.5
328.15 K, x1 = 0.1003	1205.1	38.01
328.15 K, x1 = 0.2001	–	36.85
328.15 K, x1 = 0.2004	1218.1	–
328.15 K, x1 = 0.2997	–	35.7
328.15 K, x1 = 0.3003	1231.3	–
328.15 K, x1 = 0.3999	1245	34.64
328.15 K, x1 = 0.4996	–	33.74
328.15 K, x1 = 0.5007	1259.2	–
328.15 K, x1 = 0.5991	1273.5	32.9
328.15 K, x1 = 0.6954	1288	–
328.15 K, x1 = 0.6997	–	32.19
328.15 K, x1 = 0.7997	1304.1	–
328.15 K, x1 = 0.7999	–	31.58
328.15 K, x1 = 0.8996	1320.2	–
328.15 K, x1 = 0.8998	–	30.65
328.15 K, x1 = 1	1336.4	30.46
333.15 K, x1 = 0.1003	1201.7	31.61
333.15 K, x1 = 0.2001	–	30.75
333.15 K, x1 = 0.2004	1214.6	–
333.15 K, x1 = 0.2997	–	29.88
333.15 K, x1 = 0.3003	1227.9	–
333.15 K, x1 = 0.3999	1241.5	29.05
333.15 K, x1 = 0.4996	–	28.35
333.15 K, x1 = 0.5007	1255.7	–
333.15 K, x1 = 0.5991	1270	27.7
333.15 K, x1 = 0.6954	1284.4	–
333.15 K, x1 = 0.6997	–	27.13
333.15 K, x1 = 0.7997	1300.5	–
333.15 K, x1 = 0.7999	–	26.61
333.15 K, x1 = 0.8996	1316.6	–
333.15 K, x1 = 0.8998	–	25.87
333.15 K, x1 = 1	1332.8	25.73
338.15 K, x1 = 0.1003	1198.3	26.6
338.15 K, x1 = 0.2001	–	25.96
338.15 K, x1 = 0.2004	1211.2	–
338.15 K, x1 = 0.2997	–	25.28
338.15 K, x1 = 0.3003	1224.4	–
338.15 K, x1 = 0.3999	1238	24.64
338.15 K, x1 = 0.4996	–	24.09
338.15 K, x1 = 0.5007	1252.2	–
338.15 K, x1 = 0.5991	1266.5	23.58
338.15 K, x1 = 0.6954	1280.9	–
338.15 K, x1 = 0.6997	–	23.11
338.15 K, x1 = 0.7997	1297	–
338.15 K, x1 = 0.7999	–	22.69
338.15 K, x1 = 0.8996	1312.9	–
338.15 K, x1 = 0.8998	–	22.08
338.15 K, x1 = 1	1329.2	21.98
343.15 K, x1 = 0.1003	1194.9	22.64
343.15 K, x1 = 0.2001	–	22.15
343.15 K, x1 = 0.2004	1207.8	–
343.15 K, x1 = 0.2997	–	21.6
343.15 K, x1 = 0.3003	1221	–
343.15 K, x1 = 0.3999	1234.6	21.12
343.15 K, x1 = 0.4996	–	20.68
343.15 K, x1 = 0.5007	1248.7	–
343.15 K, x1 = 0.5991	1263	20.28
343.15 K, x1 = 0.6954	1277.3	–
343.15 K, x1 = 0.6997	–	19.9
343.15 K, x1 = 0.7997	1293.4	–
343.15 K, x1 = 0.7999	–	19.56
343.15 K, x1 = 0.8996	1309.3	–
343.15 K, x1 = 0.8998	–	19.05
343.15 K, x1 = 1	1325.5	18.95
